Laboratory results: the supplement of paper PMC3493320

Legend:
[1] = test system: NCI-H295R; assay: maximal response (efficacy) relative to DMSO (0%) and doxorubicin (-100%); higher = less growth inhibition; conditions: 48 h
[2] = test system: NCI-H295R; assay: IC50 (antiproliferative, ATP content); conditions: 48 h

IC50 [2] [µM] | SMILES | maximal response [1] [%]
1.68 | CC(=O)[C@]1(O)Cc2c(O)c3c(c(O)c2[C@@H](O[C@H]2C[C@H](N)[C@H](O)[C@H](C)O2)C1)C(=O)c1ccccc1C3=O.Cl | -121
18.8 | O=C3O[C@@H]2[C@@H]1O[C@@](C)1CC/C=C(C)/CC[C@H]2[C@@]3=C | -138
23.7 | CC(C)=CCOc1ccc(C=CC(=O)c2ccc(OCC=C(C)C)cc2OCC(=O)O)cc1 | -145
21.1 | COc1cc2c(cc1OC)-c1c/c(=N\c3c(C)cc(C)cc3C)n(C)c(=O)n1CC2.Cl | -149
23.7 | Cc1cc(CC(C)CC(C)(C)C)n(O)c(=O)c1.NCCO (stereo not drawn) | -96.2

More lines, now with the values behind:

SMILES | IC50 [2] [µM] | maximal response [1] [%]
CN(Cc1cnc2nc(N)nc(N)c2n1)c1ccc(C(=O)N[C@@H](CCC(=O)O)C(=O)O)cc1 | 0.0188 | -74.9
C[CH2][Hg][S]c1ccccc1C(=O)[O-].[Na+] | 2.66 | -124
Cl.Cl.Fc1ccc(C(OCCN2CCN(CCCc3ccccc3)CC2)c2ccc(F)cc2)cc1 | 23.7 | -154
O[C@H]2C[C@@H](O[C@H](C)[C@H]2O[C@@H]3O[C@H](C)[C@@H](O[C@H]4C[C@H](O)[C@H](OC)[C@@H](C)O4)[C@@H](O)C3)O[C@H]1CC[C@@]5(C)[C@@](CC[C@]6([H])[C@@]([H])5C[C@@H](O)[C@@]7(C)[C@@](O)6CC[C@@H]7[C@@](CO8)=CC8=O)([H])C1 | 0.237 | -111
